Test results taken from publication PMC7804942, “The amphibian peptide Yodha is virucidal for Zika and dengue viruses” (Scientific Reports, 2021).
Where two headings read alike, the source gives them in different places. Where a SMILES comes first, the peptide text is derived from it.

Tests used:
[1] = system: ZIKV MR-766 (Uganda, 1947); test: Focus forming assay, ZIKV strain panel; format: cell-based, Zika virus; details: 50 µM and 100 µM peptide vs OVA control, FFA
Description: (§1) For all our experiments in Fig. 1, we used the PRVABC59 (Puerto Rico 2015) strain of ZIKV. […] The Yodha peptide inhibited all ZIKV strains (Fig. 1H,I).
(§2) Peptides were incubated with ZIKV (100 FFU/well) for 2 h at 37 °C. This incubated mixture was used to infect Vero cells for 1.5 h at 37 °C. Cells and inoculum were overlaid with 2% methylcellulose solution (OptiMEM; Gibco) and incubated for 72 h at 37 °C. Cells were washed with PBS and fixed with a 1:1 methanol/acetone mixture for 30 min. Cells were blocked with 5% milk/PSB at room temperature for 20 min and incubated with primary antibody (anti-flavivirus mouse 4G2[10] antibody) for 2 h at 37 °C. Then, cells were incubated with secondary antibody (HRP-conjugated goat anti-mouse IgG, Cell Signaling) for 1 h at 37 °C. Cells were developed with TrueBlue Peroxidase Substrate (KPL). Plates were read on a CTL-ImmunoSpot S6 Micro analyzer.

[2] = system: ZIKV P6-740 (Malaysia, 1966); test: Focus forming assay, ZIKV strain panel; format: cell-based, Zika virus; details: 50 µM and 100 µM peptide vs OVA control, FFA
Description: as §1, §2

[3] = system: ZIKV DakAr41524 (Senegal 1984); test: Focus forming assay, ZIKV strain panel; format: cell-based, Zika virus; details: 50 µM and 100 µM peptide vs OVA control, FFA
Description: as §1, §2

ZIKV = ZIKV neutralisation by mutant, enantiomer and variant peptides (strain not stated); format: cell-based, Zika virus
Description: To further characterize Yodha peptide, we generated alanine-scanning mutants of the peptide, which removes the side chain, but maintains peptide conformation, allowing for the assessment of the significance of each amino acid within the larger structure (Fig. 4A). Each of 23 mutated peptides was tested for its (a) ability to neutralize ZIKV (Fig. 4B) and (b) toxicity against human RBC, if any (Fig. 4C).
So next, we sought to determine how common this peptide or its analogs are in host defense peptides isolated from elsewhere in the world. […] We then determined the extent to which any of these variant peptides can neutralize ZIKV. […] We also generated a series of mutant Yodha peptides, including one which lacks the C terminal DDQERC, a short 12 peptide fragment that lacks the EEERGA from variant #12, and a S1P peptide that replace S1-P in the full-length Yodha (Fig. 5D) and tested their activity against ZIKV (Fig. 5D).
as §2

ZIKV (PRVABC59) = test: ZIKV entry, immunofluorescence of flavivirus E protein in Vero cells; format: cell-based, Zika virus; details: ZIKV exposed to peptide, then Vero cells infected for 30 min
Description: Next, we determined whether the observed Yodha peptide-induced decrease in viral titers was due to blocked viral entry. We reasoned that if the peptide directly kills or disrupts the envelope structure of ZIKV, this would prevent virus entry. To test this, we designed an experiment to measure virus entry, by allowing ZIKV to bind cells at 4 °C for 1 h followed by shifting the cells to 37 °C to permit virus entry (Fig. 2A). It has been shown that DENV2 entry occurs within 25 min by early endosome trafficking. Briefly, we exposed ZIKV to Yodha peptide and then allowed the virus to infect Vero cells for 30 min. We then measured viral RNA within the Vero cells by quantitative Real Time-PCR (qRT-PCR) (Fig. 2B). […] Next, we visualized ZIKV entry or lack thereof by immunofluorescence using antibodies against pan flavivirus E protein. […] Next, we sought to determine if Yodha peptide could reduce infectious virus production in cells already infected with ZIKV. Briefly, we infected Vero cells, allowed virus attachment and entry, and then added Yodha peptide to the culture medium at 1, 24, 48, and 72 h post-infection. We collected culture supernatants at 3, 24, 48, and 72 h after ZIKV infection to quantitate ZIKV by FFU assay (Fig. 2E). ZIKV was not detected at 3 h post-infection in both OVA- or Yodha-treated cells. […]

DENV1 = test: Focus forming assay, dengue virus; format: cell-based; details: 50 µM peptide, FFA
Description: (§3) Dengue virus strains 1, 2, 3 and 4 were treated with wither Yodha or control OVA peptide at (A) 50 µM (B) 160 µM concentration and the % of viral focus forming units were determined. (C) IC50 measurement of Yodha in DENVs infection by FFA. […] OVA peptide was used a negative control.
as §2

DENV4 = test: Focus forming assay, dengue virus; format: cell-based; details: 50 µM peptide, FFA
Description: as §3, §2

DENV2 = test: Focus forming assay, dengue virus; format: cell-based; details: 50 µM peptide, FFA
Description: as §3, §2

ZIKV (PRVABC59 strain) = details: for reduction of ZIKV: dose escalation
Description: We screened frog skin peptides to identify peptides with potentially virucidal activity against ZIKV infection. Briefly, we incubated individual peptides with ZIKV (PRVABC59 strain) for 2 h and then tested viral viability in a focus-forming assay. […] A significant drawback of host defense peptides is that they can be toxic to mammalian cells. To identify non-toxic candidates among the 12 peptides, we measured the toxicity of each peptide against human erythrocytes. […] The C-terminus of Yodha peptide contains three negatively charged amino acids.
as §2, with “Peptides were incubated with ZIKV (100 FFU/well) for 2 h at 37 °C.” left out

## CC[C@H](C)[C@H](NC(=O)[C@@H](NC(=O)CNC(=O)[C@H](CC(C)C)NC(=O)[C@H](Cc1ccccc1)NC(=O)[C@H](Cc1ccccc1)NC(=O)[C@H](CC(C)C)NC(=O)[C@H](CC(C)C)NC(=O)[C@H](CC(C)C)NC(=O)[C@H](CCSC)NC(=O)[C@@H](N)CO)[C@@H](C)O)C(=O)N[C@@H](CO)C(=O)N[C@@H](CC(C)C)C(=O)N[C@@H](CO)C(=O)N[C@@H](CC(C)C)C(=O)N[C@@H](CS)C(=O)N[C@@H](CCC(N)=O)C(=O)N[C@@H](CC(=O)O)C(=O)N[C@@H](CC(=O)O)C(=O)N[C@@H](CCC(N)=O)C(=O)N[C@@H](CCC(=O)O)C(=O)N[C@@H](CCCNC(=N)N)C(=O)N[C@@H](CS)C(=O)O [Yodha] (H-SMLLLFFLGTISLSLCQDDQERC-OH; N-terminus and C-terminus assumed)
[1]
  inhibition of ZIKV strain: inhibited
[2]
  inhibition of ZIKV strain: inhibited
[3]
  inhibition of ZIKV strain: inhibited
ZIKV
  anti-viral activity against ZIKV, D- versus L-enantiomer: comparable anti-viral activity
ZIKV (PRVABC59)
  expression of ZIKV envelope in cells (immunofluorescence): decreased expression of ZIKV envelope
DENV1
  inhibition of DENV1: efficiently inhibited
DENV4
  inhibition of DENV4: efficiently inhibited
DENV2
  inhibition of DENV2: efficiently inhibited
ZIKV (PRVABC59 strain); 10 µM peptide, FFA
  reduction of ZIKV: 35%
ZIKV (PRVABC59 strain); 20 µM peptide, FFA
  reduction of ZIKV: 50%
ZIKV (PRVABC59 strain); 20 µM peptide, exposure 5 min, 15 min, 30 min, 1 h and 2 h, all time points
  Viral titers (FFU) after timed exposure: significantly decreased
ZIKV (PRVABC59 strain); 40 µM peptide, FFA
  reduction of ZIKV: 65%
ZIKV (PRVABC59 strain); 50 µM and 100 µM peptide vs OVA control, FFA
  inhibition of ZIKV strain: inhibited
ZIKV (PRVABC59 strain); 80 µM peptide, FFA
  reduction of ZIKV: 80%
ZIKV (PRVABC59 strain); 160 µM peptide, FFA
  reduction of ZIKV: 90%
ZIKV (PRVABC59 strain); PRVABC59 strain, 2 h
  IC50: 20 µM
ZIKV (PRVABC59 strain); exposure of virus to peptide
  time of exposure needed to neutralize / destroy ZIKV: ≤ 5 min
